Data: patent US20260199323A1, “LIGAND COMPOUNDS FOR E3 UBIQUITIN LIGASE, PROTEIN DEGRADERS DEVELOPED ON BASIS OF LIGAND COMPOUNDS, AND USES THEREOF” (GLUETACS THERAPEUTICS (SHANGHAI) CO., LTD., priority 2021, published 2026)

Key:
Assay type in all cases: cell-based, Human
[1] = test system: SR; test: CCK-8 tumor cell proliferation, SR; details: Homo sapiens; Table 15, ALK inhibitor based; SR; read-out: IC50 inhibiting proliferation of tumor cells, SR
In short: (§1)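 IC50 derived from CCK-8 cell viability after compound treatment. Dilution series: 10 concentrations, 5-fold apart, from 10 μM. Compound added 24 h post-seeding; culture at 37 °C in 5% CO2.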

[2] = test system: MV-4-11; test: CCK-8 tumor cell proliferation, MV-4-11; details: Homo sapiens, MV4-11; Table 15, ALK inhibitor based; MV-4-11; read-out: IC50 inhibiting proliferation of tumor cells, MV-4-11
Description: (§2) The tumor cells used herein were cultured in a cell culture medium listed in table 4 at 37° C. in an incubator with 5% CO2. Prior to experimentation, all cells used were correctly identified by STR profiling, and tested negative for mycoplasma through routine screenings.
(§3) IC50 values of the compounds of the present disclosure (including the compounds in Tables 1 and 3, and compounds of examples) were measured using the Meilun Cell Counting Kit-8 kit from Dalian Meilun Biotech Co., Ltd. Assay details are as follows: tumor cells were seeded in a 96-well plate at a density listed in Table 5. After 24 h, 100 μL of the inoculated cells were treated with 0.5 μL of the compounds of the present disclosure (including the compounds in Tables 1 and 3, and compounds of examples) at 10 different successively decreasing concentrations (starting at the highest concentration of 10 μM; 5-fold serial dilutions). After the cells were treated with the compounds of the present disclosure for a period of time, the cell viability detection reagent was added to the culture medium for cell viability assessment according to the instructions provided with the CCK-8 kit. […] The growth inhibition of the compounds of the present disclosure on cells was plotted by Prism Graphpad software, and the IC50 values of the compounds of the present disclosure were calculated therefrom.

[3] = test system: PC-9; test: CCK-8 tumor cell proliferation, PC-9; details: Homo sapiens; Table 15, ALK inhibitor based; PC-9; read-out: IC50 inhibiting proliferation of tumor cells, PC-9
Description: The tumor cells used herein were cultured in a cell culture medium listed in table 4 at 37° C. in an incubator with 5% CO2.
as §3, with “After” for “IC50 values of the compounds of the present disclosure (including the compounds in Tables 1 and 3, and compounds of examples) were measured using the Meilun Cell Counting Kit-8 kit from Dalian Meilun Biotech Co., Ltd. Assay details are as follows: tumor cells were seeded in a 96-well plate at a density listed in Table 5. After”

[4] = test system: Mino; test: CCK-8 tumor cell proliferation, Mino; details: Homo sapiens; Table 15, ALK inhibitor based; Mino; read-out: IC50 inhibiting proliferation of tumor cells, Mino
In short: as §1

[5] = test system: MDA-MB-231; test: CCK-8 tumor cell proliferation, MDA-MB-231; details: Homo sapiens; Table 15, ALK inhibitor based; MDA-MB-231; read-out: IC50 inhibiting proliferation of tumor cells, MDA-MB-231
In short: as §1

[6] = test system: Vcap; test: CCK-8 tumor cell proliferation, Vcap; details: for IC50 for inhibiting the proliferation of tumor cells, Vcap: Table 8, designed based on ER inhibitors, 96 h; for IC50: Homo sapiens, VCaP, Table 18, FAK inhibitor based, Vcap, read-out: IC50 inhibiting proliferation of tumor cells, Vcap
Description: as §2, §3

[7] = test system: CAL-62; test: CCK-8 tumor cell proliferation, CAL-62; set-up: IC50 for inhibiting the proliferation of tumor cells, CAL-62: scale not given here; details: for IC50 for inhibiting the proliferation of tumor cells, CAL-62: Table 8, designed based on ER inhibitors, 72 h; for IC50: Homo sapiens, Table 18, FAK inhibitor based, CAL-62, read-out: IC50 inhibiting proliferation of tumor cells, CAL-62
In short: as §1

[8] = test system: CCRF-CEM; test: CCK-8 tumor cell proliferation, CCRF-CEM; set-up: IC50 for inhibiting the proliferation of tumor cells, CCRF-CEM: scale not given here; details: Table 8, designed based on ER inhibitors; 96 h
In short: as §1

[9] = test system: SW620; test: CCK-8 tumor cell proliferation, SW620; details: Homo sapiens, SW-620; Table 18, FAK inhibitor based; SW620; read-out: IC50 inhibiting proliferation of tumor cells, SW620
In short: as §1

`CCc1cc2c(cc1N1CCC(N3CCN(Cc4ccc5c(c4F)CN(C4CCC(=O)NC4=O)C5=O)CC3)CC1)C(C)(C)c1[nH]c3cc(C#N)ccc3c1C2=O` (stereo not shown) [GT-03758, 8-(4-(4-((2-(2,6-dioxopiperidin-3-yl)-4-fluoro-1-oxoisoindolin-5-yl)methyl)piperazin-1-yl)piperidin-1-yl)-9-ethyl-6,6-dimethyl-11-oxo-6,11-dihydro-5H-benzo[b]carbazole-3-carbonitrile] was tested, and the IC50 [1] was < 50 nM and the IC50 [2] was 100 to 500 nM.
For `CCc1cc2c(cc1N1CCC(N3CCN(Cc4cc5c(cc4F)C(=O)N(C4CCC(=O)NC4=O)C5)CC3)CC1)C(C)(C)c1[nH]c3cc(C#N)ccc3c1C2=O` (stereo not shown) [GT-03759, 8-(4-(4-((2-(2,6-dioxopiperidin-3-yl)-6-fluoro-1-oxoisoindolin-5-yl)methyl)piperazin-1-yl)piperidin-1-yl)-9-ethyl-6,6-dimethyl-11-oxo-6,11-dihydro-5H-benzo[b]carbazole-3-carbonitrile], the IC50 [1] was < 50 nM, the IC50 [3] was 100 to 500 nM and the IC50 [2] was 100 to 500 nM. For the same compound, the IC50 [4] was 500 to 1000 nM.
In the case of `CCc1cc2c(cc1N1CCC(N3CCN(Cc4ccc5c(c4)C(=O)N(C4CCC(=O)NC4=O)C5=O)CC3)CC1)C(C)(C)c1[nH]c3cc(C#N)ccc3c1C2=O` (stereo not shown) [GT-03761, 8-(4-(4-((2-(2,6-dioxopiperidin-3-yl)-1,3-dioxoisoindolin-5-yl)methyl)piperazin-1-yl)piperidin-1-yl)-9-ethyl-6,6-dimethyl-11-oxo-6,11-dihydro-5H-benzo[b]carbazole-3-carbonitrile], the IC50 [1] is reported as < 50 nM and the IC50 [2] is reported as 1000 to 5000 nM.
With `CCc1cc2c(cc1N1CCC(N3CCN(Cc4cccc5c4CN(C4CCC(=O)NC4=O)C5=O)CC3)CC1)C(C)(C)c1[nH]c3cc(C#N)ccc3c1C2=O` (stereo not shown) [GT-03764, 8-(4-(4-((2-(2,6-dioxopiperidin-3-yl)-1-oxoisoindolin-4-yl)methyl)piperazin-1-yl)piperidin-1-yl)-9-ethyl-6,6-dimethyl-11-oxo-6,11-dihydro-5H-benzo[b]carbazole-3-carbonitrile] the IC50 [1] was < 50 nM, the IC50 [3] was 100 to 500 nM and the IC50 [2] was 50 to 100 nM. It also gave an IC50 [5] of 50 to 100 nM and an IC50 [4] of 50 to 100 nM.
`COc1cc(N2CCN(Cc3ccc4c(c3)CN(C3CCC(=O)NC3=O)C4=O)CC2)ccc1Nc1ncc(Cl)c(Nc2ccccc2P(C)(C)=O)n1` (stereo not shown) [GT-03775, 3-(5-((4-(4-((5-chloro-4-((2-(dimethylphosphoryl)phenyl)amino)pyrimidin-2-yl)amino)-3-methoxyphenyl)piperazin-1-yl)methyl)-1-oxoisoindolin-2-yl)piperidine-2,6-dione] was tested, and the IC50 [1] was < 50 nM and the IC50 [2] was 100 to 500 nM.
For `COc1cc(N2CCN(Cc3ccc4c(c3F)CN(C3CCC(=O)NC3=O)C4=O)CC2)ccc1Nc1ncc(Cl)c(Nc2ccccc2P(C)(C)=O)n1` (stereo not shown) [GT-03776, 3-(5-((4-(4-((5-chloro-4-((2-(dimethylphosphoryl)phenyl)amino)pyrimidin-2-yl)amino)-3-methoxyphenyl)piperazin-1-yl)methyl)-4-fluoro-1-oxoisoindolin-2-yl)piperidine-2,6-dione], the IC50 [1] was < 50 nM and the IC50 [2] was 100 to 500 nM.
For `COc1cc(N2CCN(Cc3cc4c(cc3F)C(=O)N(C3CCC(=O)NC3=O)C4)CC2)ccc1Nc1ncc(Cl)c(Nc2ccccc2P(C)(C)=O)n1` (stereo not shown) [GT-03777, 3-(5-((4-(4-((5-chloro-4-((2-(dimethylphosphoryl)phenyl)amino)pyrimidin-2-yl)amino)-3-methoxyphenyl)piperazin-1-yl)methyl)-6-fluoro-1-oxoisoindolin-2-yl)piperidine-2,6-dione], the IC50 [1] was < 50 nM and the IC50 [2] was 50 to 100 nM.
`COc1cc(N2CCN(Cc3cc(F)c4c(c3)CN(C3CCC(=O)NC3=O)C4=O)CC2)ccc1Nc1ncc(Cl)c(Nc2ccccc2P(C)(C)=O)n1` (stereo not shown) [GT-03778, 3-(5-((4-(4-((5-chloro-4-((2-(dimethylphosphoryl)phenyl)amino)pyrimidin-2-yl)amino)-3-methoxyphenyl)piperazin-1-yl)methyl)-7-fluoro-1-oxoisoindolin-2-yl)piperidine-2,6-dione] was tested, and the IC50 [1] was < 50 nM and the IC50 [2] was 100 to 500 nM.
In the case of `COc1cc(N2CCN(Cc3cccc4c3CN(C3CCC(=O)NC3=O)C4=O)CC2)ccc1Nc1ncc(Cl)c(Nc2ccccc2P(C)(C)=O)n1` (stereo not shown) [GT-03779, 3-(4-((4-(4-((5-chloro-4-((2-(dimethylphosphoryl)phenyl)amino)pyrimidin-2-yl)amino)-3-methoxyphenyl)piperazin-1-yl)methyl)-1-oxoisoindolin-2-yl)piperidine-2,6-dione], the IC50 [1] is reported as < 50 nM and the IC50 [2] is reported as 100 to 500 nM.
Compound `COc1cc(N2CCN(Cc3ccc4c(c3)C(=O)N(C3CCC(=O)NC3=O)C4=O)CC2)ccc1Nc1ncc(Cl)c(Nc2ccccc2P(C)(C)=O)n1` (stereo not shown) [GT-03780, 5-((4-(4-((5-chloro-4-((2-(dimethylphosphoryl)phenyl)amino)pyrimidin-2-yl)amino)-3-methoxyphenyl)piperazin-1-yl)methyl)-2-(2,6-dioxopiperidin-3-yl)isoindoline-1,3-dione] has an IC50 [1] of 100 to 500 nM and an IC50 [2] of 1000 to 5000 nM.
For `O=C1CCC(N2C(=O)c3ccc(CBr)cc3C2=O)C(=O)N1` (stereo not shown) [GT-03855], the “IC50 for inhibiting the proliferation of tumor cells, Vcap” value [6] was “A+”, the “IC50 for inhibiting the proliferation of tumor cells, CAL-62” value [7] was “A+” and the “IC50 for inhibiting the proliferation of tumor cells, CCRF-CEM” value [8] was “A+”.
For `CNC(=O)c1ccccc1Nc1cc(Nc2cc(C)c(N3CCN(Cc4ccc5c(c4)CN(C4CCC(=O)NC4=O)C5=O)CC3)cc2OC(C)C)ncc1C(F)(F)F` (stereo not shown) [GT-03940, 2-((2-((4-(4-((2-(2,6-dioxopiperidin-3-yl)-1-oxoisoindolin-5-yl)methyl)piperazin-1-yl)-2-isopropoxy-5-methylphenyl)amino)-5-(trifluoromethyl)pyridin-4-yl)amino)-N-methylbenzamide], the IC50 [6] was 500 to 1000 nM, the IC50 [9] was 50 to 100 nM and the IC50 [7] was < 50 nM.
In the case of `CNC(=O)c1ccccc1Nc1cc(Nc2cc(C)c(N3CCN(Cc4ccc5c(c4F)CN(C4CCC(=O)NC4=O)C5=O)CC3)cc2OC(C)C)ncc1C(F)(F)F` (stereo not shown) [GT-03941, 2-((2-((4-(4-((2-(2,6-dioxopiperidin-3-yl)-4-fluoro-1-oxoisoindolin-5-yl)methyl)piperazin-1-yl)-2-isopropoxy-5-methylphenyl)amino)-5-(trifluoromethyl)pyridin-4-yl)amino)-N-methylbenzamide], the IC50 [6] is reported as 100 to 500 nM, the IC50 [9] is reported as < 50 nM and the IC50 [7] is reported as < 50 nM.
`CCC(=C(c1ccc(O)cc1)c1ccc(N2CCN(Cc3cccc4c3CN(C3CCC(=O)NC3=O)C4=O)CC2)cc1)c1ccc(O)cc1` (stereo not shown) [GT-04147, 3-(4-((4-(4-(1,2-bis(4-hydroxyphenyl)but-1-en-1-yl)phenyl)piperazin-1-yl)methyl)-1-oxoisoindolin-2-yl)piperidine-2,6-dione] was tested, and the “IC50 for inhibiting the proliferation of tumor cells, Vcap” value [6] was “A+”, the “IC50 for inhibiting the proliferation of tumor cells, CAL-62” value [7] was “A+” and the “IC50 for inhibiting the proliferation of tumor cells, CCRF-CEM” value [8] was “A+”.
For `CCC(=C(c1ccc(O)cc1)c1ccc(N2CCN(Cc3ccc4c(c3)C(=O)N(C3CCC(=O)NC3=O)C4=O)CC2)cc1)c1ccc(O)cc1` (stereo not shown) [GT-04148, 5-((4-(4-(1,2-bis(4-hydroxyphenyl)but-1-en-1-yl)phenyl)piperazin-1-yl)methyl)-2-(2,6-dioxopiperidin-3-yl)isoindoline-1,3-dione], the “IC50 for inhibiting the proliferation of tumor cells, Vcap” value [6] was “A+”, the “IC50 for inhibiting the proliferation of tumor cells, CAL-62” value [7] was “A+” and the “IC50 for inhibiting the proliferation of tumor cells, CCRF-CEM” value [8] was “A+”.
